Measurements from PubChem BioAssay AID1963856 (Molecular Pharmacology Branch, DTP, NCI, 2024).

Tested on: LG0567-F671-PDC KRAS tumor spheroid viability
Experiment: Anticancer human tumor LG0567-F671-PDC patient-derived lung adenocarcinoma cell line growth inhibition [KRAS2]
Conditions: spheroids with HUVEC and MSC; for viability, T/C: stronger effect = lower value
Summary of the method: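 Combination screen of spheroid viability in tumor-cell co-cultures with endothelial (HUVEC) and mesenchymal stem cell stroma. Each agent was tested in half-log dilutions, topping at clinical Cmax or at 10 microM without a known Cmax.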

[1] = curve of first compound, second compound 0.1 µM
[2] = curve of first compound, second compound 0.316 µM
[3] = curve of first compound, second compound 1 µM
[4] = curve of first compound, second compound 3.16 µM
[5] = curve of first compound, second compound 10 µM
[6] = second compound 0.1 µM, first compound 0.0316 µM
[7] = second compound 0.1 µM, first compound 0.1 µM
[8] = second compound 0.316 µM, first compound 0.0316 µM
[9] = second compound 0.316 µM, first compound 0.1 µM
[10] = second compound 1 µM, first compound 0.0316 µM
[11] = second compound 1 µM, first compound 0.1 µM
[12] = second compound 3.16 µM, first compound 0.0316 µM
[13] = second compound 3.16 µM, first compound 0.1 µM
[14] = second compound 10 µM, first compound 0.0316 µM
[15] = second compound 10 µM, first compound 0.1 µM
[16] = second compound 0.1 µM, first compound 0.316 µM
[17] = second compound 0.1 µM, first compound 1 µM
[18] = second compound 0.1 µM, first compound 3.16 µM
[19] = second compound 0.1 µM, first compound 10 µM
[20] = second compound 0.316 µM, first compound 0.316 µM
[21] = second compound 0.316 µM, first compound 1 µM
[22] = second compound 0.316 µM, first compound 3.16 µM
[23] = second compound 0.316 µM, first compound 10 µM
[24] = second compound 1 µM, first compound 0.316 µM
[25] = second compound 1 µM, first compound 1 µM
[26] = second compound 1 µM, first compound 3.16 µM
[27] = second compound 1 µM, first compound 10 µM
[28] = second compound 3.16 µM, first compound 0.316 µM
[29] = second compound 3.16 µM, first compound 1 µM
[30] = second compound 3.16 µM, first compound 3.16 µM
[31] = second compound 3.16 µM, first compound 10 µM
[32] = second compound 10 µM, first compound 0.316 µM
[33] = second compound 10 µM, first compound 1 µM
[34] = second compound 10 µM, first compound 3.16 µM
[35] = second compound 10 µM, first compound 10 µM
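Note: drug exposure lasted seven days after spheroids formed for three days.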
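Throughout, for viability, T/C: 100% = DMSO vehicle control viability.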

Work on `CN(C)C/C=C/C(=O)Nc1cc2c(Nc3ccc(F)c(Cl)c3)ncnc2cc1O[C@H]1CCOC1` + CNCc1ccccc1-c1csc(C(C)Nc2nc(C)nc3cc(OC)c(OC)cc23)c1 yielded an IC50 [1] of 24.8 nM, an IC50 [2] of 17.1 nM and an IC50 [3] of 6.76 nM. For the same compound, the IC50 [4] was 0.404 nM, the IC50 [5] was less than 0.316 nM and the viability, T/C (second compound 0.1 µM, first compound 0.000316 µM) was 88%. The viability, T/C (second compound 0.1 µM, first compound 0.001 µM) was 71.5%, the viability, T/C (second compound 0.1 µM, first compound 0.00316 µM) was 65.5% and the viability, T/C (second compound 0.1 µM, first compound 0.01 µM) was 49%. The viability, T/C [6] was 46.9%, the viability, T/C [7] was 51.3% and the viability, T/C (second compound 0.316 µM, first compound 0.000316 µM) was 77.9%. It also gave a viability, T/C (second compound 0.316 µM, first compound 0.001 µM) of 72.8%, a viability, T/C (second compound 0.316 µM, first compound 0.00316 µM) of 59.7% and a viability, T/C (second compound 0.316 µM, first compound 0.01 µM) of 52%. It also gave a viability, T/C [8] of 43.5%, a viability, T/C [9] of 53.1% and a viability, T/C (second compound 1 µM, first compound 0.000316 µM) of 54.7%. For the same compound, the viability, T/C (second compound 1 µM, first compound 0.001 µM) was 61.3%, the viability, T/C (second compound 1 µM, first compound 0.00316 µM) was 49.4% and the viability, T/C (second compound 1 µM, first compound 0.01 µM) was 48.2%. The viability, T/C [10] was 44.2%, the viability, T/C [11] was 37.4% and the viability, T/C (second compound 3.16 µM, first compound 0.000316 µM) was 54.9%. For the same compound, the viability, T/C (second compound 3.16 µM, first compound 0.001 µM) was 31.7%, the viability, T/C (second compound 3.16 µM, first compound 0.00316 µM) was 0.31% and the viability, T/C (second compound 3.16 µM, first compound 0.01 µM) was 0.13%. It also gave a viability, T/C [12] of 0.63%, a viability, T/C [13] of 0.28% and a viability, T/C (second compound 10 µM, first compound 0.000316 µM) of 0.28%. For the same compound, the viability, T/C (second compound 10 µM, first compound 0.001 µM) was 0.22%, the viability, T/C (second compound 10 µM, first compound 0.00316 µM) was 0.1% and the viability, T/C (second compound 10 µM, first compound 0.01 µM) was 0.38%. For the same compound, the viability, T/C [14] was 1.14% and the viability, T/C [15] was 0.66%.

`CC1(C)CCC(CN2CCN(c3ccc(C(=O)NS(=O)(=O)c4ccc(NCC5CCOCC5)c([N+](=O)[O-])c4)c(Oc4cnc5[nH]ccc5c4)c3)CC2)=C(c2ccc(Cl)cc2)C1` + CC1OCC2(CCN(c3cnc(Sc4ccnc(N)c4Cl)c(N)n3)CC2)C1N was tested, and the IC50 [1] was less than 31.6 nM, the IC50 [2] was less than 31.6 nM and the IC50 [3] was less than 31.6 nM. The IC50 [4] was less than 31.6 nM, the IC50 [5] was less than 31.6 nM and the viability, T/C [6] was 47%. It also gave a viability, T/C [7] of 44.4%, a viability, T/C [16] of 41.8% and a viability, T/C [17] of 39.1%. It also gave a viability, T/C [18] of 15.4%, a viability, T/C [19] of 3.67% and a viability, T/C [8] of 42.2%. It also gave a viability, T/C [9] of 31.9%, a viability, T/C [20] of 33.4% and a viability, T/C [21] of 32.9%. For the same compound, the viability, T/C [22] was 9.77%, the viability, T/C [23] was 2.77% and the viability, T/C [10] was 27.8%. The viability, T/C [11] was 26.2%, the viability, T/C [24] was 27% and the viability, T/C [25] was 27.1%. The viability, T/C [26] was 8.05%, the viability, T/C [27] was 1.79% and the viability, T/C [12] was 22.9%. For the same compound, the viability, T/C [13] was 24%, the viability, T/C [28] was 18.3% and the viability, T/C [29] was 16.1%. For the same compound, the viability, T/C [30] was 2.78%, the viability, T/C [31] was 2.97% and the viability, T/C [14] was 12.2%. For the same compound, the viability, T/C [15] was 15.4%, the viability, T/C [32] was 11.1% and the viability, T/C [33] was 10.7%. For the same compound, the viability, T/C [34] was 2.4% and the viability, T/C [35] was 0.54%.

`CC(=O)Nc1cccc(-n2c(=O)n(C3CC3)c(=O)c3c(Nc4ccc(I)cc4F)n(C)c(=O)c(C)c32)c1` was tested, and the viability, T/C (compound 0.0001 µM) was 80.8% [middle of 5 runs], the viability, T/C (compound 0.000316 µM) was 63.3% [middle of 5 runs] and the viability, T/C (compound 0.001 µM) was 55.2% [middle of 5 runs]. The viability, T/C (compound 0.00316 µM) was 50.8% [middle of 5 runs], the viability, T/C (compound 0.01 µM) was 38.5% [middle of 5 runs] and the viability, T/C (compound 0.0316 µM) was 15.6% [middle of 5 runs]. For the same compound, the IC50 (curve of compound) was 2.56 nM [middle of 5 runs].

For `O=C(c1cc(Cc2n[nH]c(=O)c3ccccc23)ccc1F)N1CCN(C(=O)C2CC2)CC1` + CNCc1ccccc1-c1csc(C(C)Nc2nc(C)nc3cc(OC)c(OC)cc23)c1, the IC50 [1] was greater than 10000 nM, the IC50 [2] was greater than 10000 nM and the IC50 [3] was greater than 10000 nM. The IC50 [4] was 3590 nM, the IC50 [5] was less than 31.6 nM and the viability, T/C [6] was 88.1%. For the same compound, the viability, T/C [7] was 95.4%, the viability, T/C [16] was 80.6% and the viability, T/C [17] was 79.5%. It also gave a viability, T/C [18] of 74.1%, a viability, T/C [19] of 81.6% and a viability, T/C [8] of 69.6%. The viability, T/C [9] was 58.8%, the viability, T/C [20] was 63.9% and the viability, T/C [21] was 52.8%. It also gave a viability, T/C [22] of 61.5%, a viability, T/C [23] of 60.5% and a viability, T/C [10] of 78.1%. It also gave a viability, T/C [11] of 72.2%, a viability, T/C [24] of 68.3% and a viability, T/C [25] of 71.5%. The viability, T/C [26] was 67%, the viability, T/C [27] was 64.4% and the viability, T/C [12] was 46.5%. For the same compound, the viability, T/C [13] was 80%, the viability, T/C [28] was 84.2% and the viability, T/C [29] was 0.72%. The viability, T/C [30] was 69.7%, the viability, T/C [31] was 0.31% and the viability, T/C [14] was 0.22%. The viability, T/C [15] was 0.82%, the viability, T/C [32] was 0.19% and the viability, T/C [33] was 0.61%. The viability, T/C [34] was 0.17% and the viability, T/C [35] was 0.2%.
